PMC9321663, “The DevTox Germ Layer Reporter Platform: An Assay Adaptation of the Human Pluripotent Stem Cell Test” (Toxics, 2022)
Like-named read-outs stand apart in the source and are kept apart here. Starred links: 1 amine or outer side, 2 acyl side, 3 side chain; linkers in the order of their positions; H or OH if unused. Positions of bridges follow the written chain, without caps; N, C: chain ends. Non-standard residues stand in square brackets, D forms with d. Residues, ends and D or L forms follow the SMILES beside them. Chains are numbered I, II in the order given. Actinocin(9to1) = Cc1c2oc3c(C)ccc(C(=O)[*:1])c3nc-2c(C(=O)[*:2])c(N)c1=O; NMeV = CN[C@H](C(=O)O)C(C)C; Sar = CNCC(=O)O

Columns and labels:
[1] = cited from earlier work; for Development Toxicant Classification: Table S2; for Classification: developmental toxicant classification (Teratogen / Non-Teratogen) of reference and training chemicals, ref DOI per chemical: 10.1093/toxsci/kft239, 10.1093/toxsci/kfaa014, 10.1177/026119290203000204, 10.1038/s41598-020-59542-x; for DT Class.: developmental toxicant classification, chemicals common with hPST
RUES2-GLR cells = test: DevTox GLR-Endo assay: decrease in total cell count, cytotoxicity (AEID 3098, CellCount_dn); details: for Emax: Homo sapiens, read-out: Cell Count % Max Inhibition
in vitro = details: human
[2] = system: SOX2 (ectoderm and pluripotency marker) in RUES2-GLR cells; test: DevTox GLR-Endo assay: increase in percent SOX2-positive cells (AEID 3095, Sox2_up); details: for AC50 / Emax: Homo sapiens; for AC50: read-out: ga (winning model); for Emax: read-out: tp (winning model); for MAX_MEAN: tcpl plot AEID3095, maximum mean response; for MAX_MED: tcpl plot AEID3095, maximum median response
Protocol: RUES2-GLR cells were seeded 24 h prior to differentiation initiation into vitronectin-coated 384-well CellCarrier Ultra plates (10.6 mm^2/well) (Perkin Elmer, Waltham, MA, USA). Vitronectin (0.5 µg/cm^2)-coated plates were prepared and stored at 4 °C, wrapped in parafilm, for less than seven days and incubated at room temperature for one hour prior to cell seeding. […] Cells were dispensed into 20 µL coating solution using a Certus FLEX Micro Dispenser (Fritz Gyger, Gwatt, Switzerland) with a 0.45 µm valve to a final volume of 100 µL and density of 2.8 × 10^3 cells per well.
Following a 24 h post-seeding incubation period (Time = 0 h) (Figure 3A), directed endoderm differentiation was initiated with the PSC Definitive Endoderm Induction kit (Gibco, Waltham, MA, USA). […] A target dilution series (0.002–200 µM) was generated by dispensing variable nanoliter volumes of test chemical and backfilling with a complementary volume of DMSO using Echo Cherry Pick software (v.1.6.2). Wells were backfilled with 50 µL of induction medium using a Certus FLEX Micro Dispenser with 0.45 µm valves. Test compound treatment plates were mixed on a Multi-Microplate Genie mixer at 700 rpm for 10 min and subsequently incubated for two hours in a humidified atmosphere at 37 °C with 5% CO2. Each chemical treatment (0 h–Medium A; 24 h–Medium B) were prepared the day of treatment. At 0 h, cell culture medium was aspirated from the assay plate at a rate of 1 µL/s and 40 µL of Medium A ± test chemical applied using a CyBio FeliX automated liquid handler (Analytik Jena, Jena, Germany). At 24 h, conditioned cell culture medium was aspirated and 40 µL of Medium B ± test chemical was applied. At 48 h, cells were prepared for high-content image acquisition by fixation and nuclear staining. The total test chemical incubation period was 48 h. For fixation, a 4% paraformaldehyde (PFA) solution was achieved by adding 40 µL of 8% PFA directly to cell culture medium using a CyBio FeliX liquid handler. […] Following an additional 30 min incubation period at room temperature, staining solution was aspirated, 50 µL of DPBS was added, and plate sealed with MicroAmp Optical Adhesive Film (Applied Biosystems, Waltham, MA, USA).
Images were acquired within 12 h post-fixation using an Opera Phenix High-Content Screening System (Perkin Elmer, Waltham, MA, USA). […] Cell identification and mean biomarker fluorescent intensities were calculated using Harmony image analysis software (Perkin Elmer, Waltham, MA, USA). Cell nuclei were identified using the object classifying algorithm C of the software with border objects excluded using the “Remove Border Objects” feature. Mean cell biomarker intensity statistics were gathered from each object and exported for further analysis using a custom script in Python version 3.7.4 [61] […] For each plate, pluripotent-negative control wells were used to establish baseline intensity values and a cutoff threshold for determining SOX17 and BRA biomarker-positive cells. Endoderm differentiated positive control wells were used to establish baseline intensity values and a cutoff threshold for SOX2-positive cells. Cells with a mean intensity five times the baseline median absolute deviation (5*bmad) above the median cell intensity for plate-based control population technical replicates were considered positive. Well-based cell counts, reflected by the sum of total counted objects from all fields, were used to calculate the percent responders for each respective biomarker and evaluate cytotoxicity. Well-level results were exported for data modeling in the ToxCast Pipeline.
The ToxCast Pipeline R package (tcpl v.2.0.2) was used to normalize, fit, and qualify concentration-response screening data [63].

[3] = system: SOX17 (endoderm marker) in RUES2-GLR cells; test: DevTox GLR-Endo assay: increase in percent SOX17-positive cells (AEID 3093, Sox17_up); type: cell-based, human; details: for Emax: Homo sapiens; for HIT−CALL: tcpl plot AEID3093, COFF 20.3
Protocol: The total test chemical incubation period was 48 h.
(Supplementary Materials).

[4] = system: SOX17 in H9 human ESC line; details: SOX17 half-maximal inhibition concentration; read-out: hPST IC50; cited from earlier work
H9 human ESC line = details: cited from earlier work
[5] = system: SOX17 (endoderm marker) in RUES2-GLR cells; test: DevTox GLR-Endo assay: decrease in percent SOX17-positive cells (AEID 3094, Sox17_dn); details: for Hit Call: Table S2, SOX17-positive cells, cutoff 3*bmad; for DevTox ACC: Table S2, percent SOX17-positive cells; for HIT−CALL: tcpl plot AEID3094, COFF 20.3
How it was run: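 RUES2-GLR cells under endoderm differentiation exposed to test chemicals for 48 h in total, with 0.2% DMSO solvent control and SB431542 (1 µM) as developmental-toxicant control. Endpoints: decrease in total cell count and in percent SOX17-positive cells; n = 4 biological replicates minimum.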

[6] = cytotoxicity half-maximal concentration
[7] = Homo sapiens, read-out: DevTox % Max Inhibition
[8] = Homo sapiens, read-out: MAX_MEAN
[9] = Homo sapiens, read-out: MAX_MED
[10] = Homo sapiens, read-out: tp (winning model)
[11] = tcpl plot AEID3093, maximum mean response, read-out: MAX_MEAN
[12] = tcpl plot AEID3093, maximum median response, read-out: MAX_MED
[13] = Homo sapiens, 48 h, read-out: DevTox-GLR Endo AC50 (µM), SOX17 half-maximal activity concentration, 48 h exposure
[14] = Homo sapiens, read-out: ga (winning model), tcpl plot AEID3094, gain parameter of winning curve fit (log concentration, µM axis), hit calls only (converted)
[15] = RUES2-GLR cells under directed endoderm differentiation

Row | SMILES | Development Toxicant Classification [1] | Classification [1] | DT Class. [1] | Emax (RUES2-GLR cells) [%] | AC50 [2] [µM] | Emax [2] [%] | MAX_MEAN [2] [Percent Activity] | MAX_MED [2] [Percent Activity] | HIT−CALL [3] | IC50 [4] [µM] | hPST TC50 (H9 human ESC line; [6]) [µM] | hPST TC50 (H9 human ESC line; hPST cytotoxicity) [µM] | Emax [5, 7] [%] | Emax [5, 8] [%] | Emax [5, 9] [%] | Emax [5, 10] [%] | Hit Call [5] | DevTox ACC ([5]; 48 h exposure) [µM] | HIT−CALL [5] | Emax [3, 11] [%] | further results
1 | Cc1c2oc3c(C)ccc(C(=O)N[C@@H]4C(=O)N[C@H](C(C)C)C(=O)N5CCC[C@H]5C(=O)N(C)CC(=O)N(C)[C@@H](C(C)C)C(=O)O[C@@H]4C)c3nc-2c(C(=O)N[C@@H]2C(=O)N[C@H](C(C)C)C(=O)N3CCC[C@H]3C(=O)N(C)CC(=O)N(C)[C@@H](C(C)C)C(=O)O[C@@H]2C)c(N)c1=O [Actinomycin D] (I: T[dV]P[Sar][NMeV] / II: T[dV]P[Sar][NMeV]; ester I:1-I:C, II:1-II:C; linker I:N-II:N via Actinocin(9to1)) | Positive | Teratogen | Pos | 96 | 0.1 | 24 | 20.2 | 20.2 | 0 | < 0.01 | <0.01 | < 0.01 | 101 | 102 | 101 | 101 | Positive | 2.881e-05 | 1 |  | Cell Count ACC (RUES2-GLR cells; Table S2, 48 h exposure): 0.0003574 µM; CC50 (in vitro): 0.00048 µM; Emax ([3]; read-out: MAX_MEAN): 6.35%; Emax ([3]; read-out: MAX_MED): 3.62%; SOX17 ACC relative to cytotoxic concentration (in words) [5]: below cytotoxic concentrations; AC50 ([5]; Homo sapiens, 48 h, read-out: DevTox-GLR Endo AC50 (µM)): 3.7e-05 µM; AC50 ([5]; Homo sapiens, read-out: ga (winning model)): 3.63e-05 µM
2 | Cc1nc(Nc2ncc(C(=O)Nc3c(C)cccc3Cl)s2)cc(N2CCN(CCO)CC2)n1 [Dasatinib] | Positive | Teratogen | Pos | 96 | 148 | 85.8 | 63.7 | 64.4 | 0 | < 1 | <1 | < 1 | 102 | 102 | 102 | 102 | Positive | 0.3299 | 1 | 5.98 | Cell Count ACC (RUES2-GLR cells; human, 48 h): 0.005325 µM; CC50 at 48 h (in vitro): 0.05 µM; Emax [3, 12]: 3.77%; AC50 [5, 13]: 0.72 µM; AC50 [5, 14]: 0.721 µM
3 | c1cc(-c2cnn3cc(-c4ccc(OCCN5CCCCC5)cc4)cnc23)ccn1 [Dorsomorphin] | Positive | Teratogen | Pos | 95.1 | 10.7 | 38.7 | 16.8 | 17 | 0 | 0.3 | 2.4 | 2.4 | 99.6 | 99.4 | 99.6 | 114 | Positive | 8.65 | 1 | 9.04 | Cell Count ACC (RUES2-GLR cells; human, 48 h): 6.307 µM; CC50 at 48 h (in vitro): 16.7 µM; Emax [3, 12]: 8.93%; AC50 [5, 13]: 17.1 µM; AC50 [5, 14]: 17 µM
4 | COc1ccc2nc([S@@+]([O-])Cc3ncc(C)c(OC)c3C)[nH]c2c1 [Esomeprazole] | Negative | Non-Teratogen | Neg | 94 | 69.2 | 17.4 | 23.9 | 21.6 | 0 | 32 | 101 | 101 | 101 | 101 | 101 | 123 | Positive | 12.9286 | 1 | 0.101 | Cell Count ACC (RUES2-GLR cells; human, 48 h): 28.1982 µM; CC50 at 48 h (in vitro; [15]): 38.5 µM; Emax [3, 12]: 1.23%; SOX17 ACC relative to cytotoxic concentration (in words) [5]: below cytotoxic concentrations; hit call designation (in words) ([5]; DevTox GLR-Endo prediction against developmental toxicant classification): false positive; AC50 [5, 13]: 34 µM; AC50 [5, 14]: 33.9 µM; Emax ([5]; Homo sapiens, read-out: maximum observed effect level class (% max inhibition)): 80 to 100%; AC50 ([5]; read-out: DevTox-GLR Endo AC50, SOX17 half-maximal activity concentration, 48 h exposure): 33.8 µM
5 | CNC(=O)c1cc(Oc2ccc(NC(=O)Nc3ccc(Cl)c(C(F)(F)F)c3)cc2)ccn1 [Sorafenib] | Positive | Teratogen | Pos | 95.8 | 0.748 | 8.9 | 13.6 | 11.9 | 0 | < 2 | <2 | < 2 | 102 | 102 | 102 | 101 | Positive | 0.5004 | 1 | 8.73 | Cell Count ACC (RUES2-GLR cells; Table S2, 48 h exposure): 0.4993 µM; CC50 at 48 h (in vitro; [15]): 0.61 µM; Emax [3, 12]: 9.19%; AC50 [5, 13]: 0.62 µM; AC50 [5, 14]: 0.618 µM
6 | CCN(CC)CCNC(=O)c1c(C)[nH]c(/C=C2\C(=O)Nc3ccc(F)cc32)c1C [Sunitinib] | Positive | Teratogen | Pos | 97.7 | 5.41 | 6.74 | 3 | 3.23 | 0 | 2.8 | 3.6 | 3.6 | 102 | 102 | 102 | 101 | Positive | 0.5184 | 1 | 0.538 | Cell Count ACC (RUES2-GLR cells; Table S2, 48 h exposure): 0.6087 µM; CC50 at 48 h (in vitro; [15]): 1.26 µM; Emax [3, 12]: 0.596%; SOX17 ACC relative to cytotoxic concentration (in words) [5]: below cytotoxic concentrations; AC50 [5, 13]: 0.63 µM; AC50 [5, 14]: 0.628 µM
7 | COc1cc2c(Nc3ccc(Br)cc3F)ncnc2cc1OCC1CCN(C)CC1 [Vandetanib] | Positive | Teratogen | Pos | 98.3 | 7.23 | 23.1 | 10.9 | 10.8 | 0 | 3.5 | 4.4 | 4.4 | 102 | 102 | 102 | 101 | Positive | 4.123 | 1 | 7.33 | Cell Count ACC (RUES2-GLR cells; Table S2, 48 h exposure): 2.124 µM; CC50 at 48 h (in vitro; [15]): 4.32 µM; Emax [3, 12]: 9.78%; AC50 [5, 13]: 4.9 µM; AC50 [5, 14]: 4.91 µM
8 | O=C1Cc2cc(CCN3CCN(c4nsc5ccccc45)CC3)c(Cl)cc2N1 [Ziprasidone] | Positive | Teratogen | Pos | 93.7 | 3.67 | 4.2 | 4.63 | 4.3 | 0 | 2.8 | 5.1 | 5.1 | 101 | 101 | 101 | 101 | Positive | 2.997 | 1 | 3.27 | Cell Count ACC (RUES2-GLR cells; human, 48 h): 1.527 µM; CC50 at 48 h (in vitro): 2.42 µM; Emax [3, 12]: 4.35%; AC50 [5, 13]: 3.57 µM; AC50 [5, 14]: 3.56 µM
